Test results: ChEMBL document CHEMBL4800722, “Data for DCP probe BI 605906” (2021)

Experiments:
[1] = molecular target: Mitogen-activated protein kinase kinase kinase 9 (Homo sapiens) (UniProt P80192); settings: Compound concentration 1.0 uM
[2] = molecular target: Casein kinase I isoform gamma-1 (Homo sapiens) (UniProt Q9HCP0); experiment: CSNK1G1 Invitrogen Lab (UK) kinase screen (BI); settings: Compound concentration 1.0 uM
[3] = molecular target: Activin receptor type-1B (Homo sapiens) (UniProt P36896)
Sequence of Activin receptor type-1B (Homo sapiens) (P36896 whole entry, canonical isoform): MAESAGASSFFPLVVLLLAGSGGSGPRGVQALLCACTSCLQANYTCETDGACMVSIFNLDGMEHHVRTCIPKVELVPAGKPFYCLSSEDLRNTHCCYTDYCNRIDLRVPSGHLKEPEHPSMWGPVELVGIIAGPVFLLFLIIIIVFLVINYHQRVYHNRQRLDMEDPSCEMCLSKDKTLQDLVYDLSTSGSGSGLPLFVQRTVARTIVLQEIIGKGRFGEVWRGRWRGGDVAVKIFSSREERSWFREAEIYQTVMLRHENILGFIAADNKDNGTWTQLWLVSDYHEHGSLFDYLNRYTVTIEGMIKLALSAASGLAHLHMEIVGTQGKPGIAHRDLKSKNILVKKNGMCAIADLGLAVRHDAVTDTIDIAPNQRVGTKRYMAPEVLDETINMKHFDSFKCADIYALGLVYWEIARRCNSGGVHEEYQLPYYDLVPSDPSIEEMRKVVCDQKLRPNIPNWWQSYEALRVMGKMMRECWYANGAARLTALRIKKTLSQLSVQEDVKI

[4] = molecular target: Phosphorylase b kinase gamma catalytic chain, testis/liver isoform (Homo sapiens) (UniProt P15735)
Sequence of Phosphorylase b kinase gamma catalytic chain, testis/liver isoform (Homo sapiens) (P15735 whole entry, looked up, canonical isoform): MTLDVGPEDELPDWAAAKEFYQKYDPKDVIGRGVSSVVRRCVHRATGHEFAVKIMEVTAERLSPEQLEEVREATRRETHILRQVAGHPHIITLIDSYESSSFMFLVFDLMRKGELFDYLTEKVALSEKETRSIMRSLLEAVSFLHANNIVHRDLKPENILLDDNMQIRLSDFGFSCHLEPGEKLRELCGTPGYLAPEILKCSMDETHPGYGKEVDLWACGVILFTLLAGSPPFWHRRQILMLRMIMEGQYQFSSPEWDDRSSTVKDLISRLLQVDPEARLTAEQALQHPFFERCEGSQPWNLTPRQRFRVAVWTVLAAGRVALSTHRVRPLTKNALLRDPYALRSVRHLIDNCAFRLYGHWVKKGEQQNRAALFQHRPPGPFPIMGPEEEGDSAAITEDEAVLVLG

[5] = molecular target: D(3) dopamine receptor (Homo sapiens) (UniProt P35462); settings: Compound concentration 10.0 uM
[6] = molecular target: Tyrosine-protein kinase Lck (Homo sapiens) (UniProt P06239); experiment: LCK Invitrogen Lab (UK) kinase screen (BI)
Sequence of Tyrosine-protein kinase Lck (Homo sapiens) (P06239 2-509 limits assumed): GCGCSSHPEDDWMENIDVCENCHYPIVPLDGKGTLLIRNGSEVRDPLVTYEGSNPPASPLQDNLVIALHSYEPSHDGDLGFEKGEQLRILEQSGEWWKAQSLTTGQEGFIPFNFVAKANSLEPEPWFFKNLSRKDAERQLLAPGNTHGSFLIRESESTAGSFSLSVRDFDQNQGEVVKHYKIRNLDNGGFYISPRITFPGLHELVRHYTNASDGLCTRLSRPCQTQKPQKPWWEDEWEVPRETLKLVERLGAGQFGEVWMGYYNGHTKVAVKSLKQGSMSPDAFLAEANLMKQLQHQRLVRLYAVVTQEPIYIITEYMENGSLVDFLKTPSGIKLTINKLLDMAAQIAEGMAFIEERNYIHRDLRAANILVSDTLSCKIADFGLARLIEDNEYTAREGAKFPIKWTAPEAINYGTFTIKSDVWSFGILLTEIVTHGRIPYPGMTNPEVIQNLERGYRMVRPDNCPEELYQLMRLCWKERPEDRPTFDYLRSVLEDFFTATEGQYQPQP

[7] = molecular target: Mitogen-activated protein kinase kinase kinase 3 (Homo sapiens) (UniProt Q99759); settings: Compound concentration 1.0 uM
[8] = molecular target: Ribosomal protein S6 kinase alpha-3 (Homo sapiens) (UniProt P51812); experiment: MAPKAP-K1B DUNDEE kinase screen (BI); settings: Compound concentration 10.0 uM
[9] = molecular target: Prostaglandin G/H synthase 2 (Homo sapiens) (UniProt P35354); settings: Compound concentration 10.0 uM
[10] = molecular target: Serine/threonine-protein kinase SIK2 (Homo sapiens) (UniProt Q9H0K1); experiment: SNF1LK2 Invitrogen Lab (UK) kinase screen (BI); settings: Compound concentration 1.0 uM
[11] = molecular target: Serine/threonine-protein kinase PAK 6 (Homo sapiens) (UniProt Q9NQU5); settings: Compound concentration 1.0 uM
[12] = molecular target: cAMP-dependent protein kinase catalytic subunit PRKX (Homo sapiens) (UniProt P51817); settings: Compound concentration 1.0 uM
[13] = molecular target: Casein kinase II subunit alpha (Homo sapiens) (UniProt P68400)
Sequence of Casein kinase II subunit alpha (Homo sapiens) (P68400 whole entry, looked up): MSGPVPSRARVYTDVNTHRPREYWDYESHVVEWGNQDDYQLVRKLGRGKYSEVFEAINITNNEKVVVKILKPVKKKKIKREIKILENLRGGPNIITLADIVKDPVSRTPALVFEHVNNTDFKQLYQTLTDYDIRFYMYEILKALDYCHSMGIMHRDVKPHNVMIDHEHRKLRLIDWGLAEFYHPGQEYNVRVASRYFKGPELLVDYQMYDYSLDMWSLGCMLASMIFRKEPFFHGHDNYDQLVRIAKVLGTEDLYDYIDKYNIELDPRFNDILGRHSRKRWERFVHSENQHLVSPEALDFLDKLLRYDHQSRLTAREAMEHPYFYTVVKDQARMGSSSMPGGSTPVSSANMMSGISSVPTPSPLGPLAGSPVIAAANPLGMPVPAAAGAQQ

[14] = molecular target: Alpha-2C adrenergic receptor (Homo sapiens) (UniProt P18825); settings: Compound concentration 10.0 uM
[15] = molecular target: Serine/threonine-protein kinase haspin (Homo sapiens) (UniProt Q8TF76); experiment: GSG2 Invitrogen Lab (UK) kinase screen (BI); settings: Compound concentration 1.0 uM
[16] = molecular target: Phosphorylase b kinase gamma catalytic chain, skeletal muscle/heart isoform (Homo sapiens) (UniProt Q16816); experiment: PHKG1 Invitrogen Lab (UK) kinase screen (BI); settings: Compound concentration 1.0 uM
[17] = molecular target: Serine/threonine-protein kinase PLK1 (Homo sapiens) (UniProt P53350); experiment: PLK1 DUNDEE kinase screen (BI); settings: Compound concentration 10.0 uM
[18] = molecular target: Adenosine receptor A1 (Homo sapiens) (UniProt P30542); experiment: A1/HU Eurofins SafetyScreen44 (BI); settings: Compound concentration 100.0 uM
[19] = molecular target: Wee1-like protein kinase (Homo sapiens) (UniProt P30291); settings: Compound concentration 1.0 uM
[20] = molecular target: Tyrosine-protein kinase ZAP-70 (Homo sapiens) (UniProt P43403); settings: Compound concentration 1.0 uM
[21] = molecular target: Rhodopsin kinase GRK1 (Homo sapiens) (UniProt Q15835); settings: Compound concentration 1.0 uM
[22] = molecular target: Thromboxane-A synthase (Homo sapiens) (UniProt P24557); experiment: THRO SYN(HU) Eurofins SafetyScreen44 (BI); settings: Compound concentration 10.0 uM
[23] = molecular target: T1, D(4) dopamine receptor (Homo sapiens) (UniProt P21917); settings: Compound concentration 10.0 uM
T1 sequence (whole entry): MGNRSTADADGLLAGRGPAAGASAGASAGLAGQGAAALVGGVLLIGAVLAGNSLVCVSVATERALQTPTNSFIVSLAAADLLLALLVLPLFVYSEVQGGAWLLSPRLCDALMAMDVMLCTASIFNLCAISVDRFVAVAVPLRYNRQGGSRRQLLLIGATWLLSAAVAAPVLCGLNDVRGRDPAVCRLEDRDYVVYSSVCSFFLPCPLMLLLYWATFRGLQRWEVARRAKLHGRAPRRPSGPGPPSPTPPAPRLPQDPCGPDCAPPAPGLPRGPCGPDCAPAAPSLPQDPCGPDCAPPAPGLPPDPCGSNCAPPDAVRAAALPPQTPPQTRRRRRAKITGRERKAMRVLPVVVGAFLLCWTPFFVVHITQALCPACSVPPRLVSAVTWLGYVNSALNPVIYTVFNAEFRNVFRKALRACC

Renin (Homo sapiens) = Renin (Homo sapiens) (UniProt P00797); settings: Compound concentration 10.0 uM
[24] = molecular target: Alpha-1B adrenergic receptor (Homo sapiens) (UniProt P35368); settings: Compound concentration 10.0 uM
[25] = molecular target: Rho-associated protein kinase 2 (Homo sapiens) (UniProt O75116); experiment: ROCKII DUNDEE kinase screen (BI); settings: Rattus norvegicus; Compound concentration 10.0 uM
[26] = molecular target: Serine/threonine-protein kinase pim-3 (Homo sapiens) (UniProt Q86V86); experiment: PIM3 Invitrogen Lab (UK) kinase screen (BI); settings: Compound concentration 1.0 uM
[27] = molecular target: Tyrosine-protein kinase JAK3 (Homo sapiens) (UniProt P52333)
Sequence of Tyrosine-protein kinase JAK3 (Homo sapiens) (P52333 whole entry): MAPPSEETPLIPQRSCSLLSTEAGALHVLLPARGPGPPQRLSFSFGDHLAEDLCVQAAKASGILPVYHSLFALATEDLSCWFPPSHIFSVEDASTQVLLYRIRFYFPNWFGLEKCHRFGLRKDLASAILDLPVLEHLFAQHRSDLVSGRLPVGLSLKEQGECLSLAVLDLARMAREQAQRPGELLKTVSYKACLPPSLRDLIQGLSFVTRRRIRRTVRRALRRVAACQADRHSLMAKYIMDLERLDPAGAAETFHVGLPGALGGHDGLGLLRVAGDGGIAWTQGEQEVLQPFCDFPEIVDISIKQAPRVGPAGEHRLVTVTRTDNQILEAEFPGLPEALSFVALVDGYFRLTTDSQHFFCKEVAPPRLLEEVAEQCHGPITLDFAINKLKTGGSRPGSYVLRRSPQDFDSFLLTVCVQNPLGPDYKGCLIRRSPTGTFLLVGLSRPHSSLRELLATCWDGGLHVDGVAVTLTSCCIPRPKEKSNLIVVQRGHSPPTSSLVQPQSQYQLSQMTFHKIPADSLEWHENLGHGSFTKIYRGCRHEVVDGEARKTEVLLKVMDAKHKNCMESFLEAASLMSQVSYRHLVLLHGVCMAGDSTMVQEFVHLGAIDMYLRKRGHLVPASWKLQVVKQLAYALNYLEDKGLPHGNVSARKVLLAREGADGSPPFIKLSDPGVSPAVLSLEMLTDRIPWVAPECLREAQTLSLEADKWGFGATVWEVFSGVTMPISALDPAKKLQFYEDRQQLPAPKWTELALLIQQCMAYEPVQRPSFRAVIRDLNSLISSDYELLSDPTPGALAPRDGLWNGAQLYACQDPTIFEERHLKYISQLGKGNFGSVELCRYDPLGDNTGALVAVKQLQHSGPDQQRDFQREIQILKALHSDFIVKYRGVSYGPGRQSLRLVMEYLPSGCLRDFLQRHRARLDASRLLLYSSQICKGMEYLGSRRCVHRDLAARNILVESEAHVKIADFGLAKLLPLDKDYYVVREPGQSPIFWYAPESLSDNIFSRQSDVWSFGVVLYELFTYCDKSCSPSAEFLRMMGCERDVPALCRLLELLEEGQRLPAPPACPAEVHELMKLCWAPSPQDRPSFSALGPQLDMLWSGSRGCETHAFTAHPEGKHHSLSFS

[28] = molecular target: Serine/threonine-protein kinase MRCK alpha (Homo sapiens) (UniProt Q5VT25); settings: Compound concentration 1.0 uM
[29] = molecular target: Kappa-type opioid receptor (Homo sapiens) (UniProt P41145); settings: Compound concentration 10.0 uM
[30] = molecular target: Endothelin-1 receptor (Homo sapiens) (UniProt P25101); settings: Compound concentration 100.0 uM
[31] = molecular target: 5-hydroxytryptamine receptor 2A (Homo sapiens) (UniProt P28223); settings: Compound concentration 10.0 uM
[32] = molecular target: Calcium/calmodulin-dependent protein kinase type II subunit alpha (Homo sapiens) (UniProt Q9UQM7); settings: Compound concentration 1.0 uM
[33] = molecular target: AMPK alpha2/beta1/gamma1 (Homo sapiens) (UniProt P54646+P54619+Q9Y478); experiment: AMPK A2B1G1 Invitrogen Lab (UK) kinase screen (BI); assay type: protein-complex assay; settings: Compound concentration 1.0 uM
[34] = molecular target: Tyrosine-protein kinase receptor TYRO3 (Homo sapiens) (UniProt Q06418); settings: Compound concentration 1.0 uM
[35] = molecular target: Focal adhesion kinase 1 (Homo sapiens) (UniProt Q05397); settings: Compound concentration 1.0 uM
Sequence of Focal adhesion kinase 1 (Homo sapiens) (Q05397 2-1052 limits assumed): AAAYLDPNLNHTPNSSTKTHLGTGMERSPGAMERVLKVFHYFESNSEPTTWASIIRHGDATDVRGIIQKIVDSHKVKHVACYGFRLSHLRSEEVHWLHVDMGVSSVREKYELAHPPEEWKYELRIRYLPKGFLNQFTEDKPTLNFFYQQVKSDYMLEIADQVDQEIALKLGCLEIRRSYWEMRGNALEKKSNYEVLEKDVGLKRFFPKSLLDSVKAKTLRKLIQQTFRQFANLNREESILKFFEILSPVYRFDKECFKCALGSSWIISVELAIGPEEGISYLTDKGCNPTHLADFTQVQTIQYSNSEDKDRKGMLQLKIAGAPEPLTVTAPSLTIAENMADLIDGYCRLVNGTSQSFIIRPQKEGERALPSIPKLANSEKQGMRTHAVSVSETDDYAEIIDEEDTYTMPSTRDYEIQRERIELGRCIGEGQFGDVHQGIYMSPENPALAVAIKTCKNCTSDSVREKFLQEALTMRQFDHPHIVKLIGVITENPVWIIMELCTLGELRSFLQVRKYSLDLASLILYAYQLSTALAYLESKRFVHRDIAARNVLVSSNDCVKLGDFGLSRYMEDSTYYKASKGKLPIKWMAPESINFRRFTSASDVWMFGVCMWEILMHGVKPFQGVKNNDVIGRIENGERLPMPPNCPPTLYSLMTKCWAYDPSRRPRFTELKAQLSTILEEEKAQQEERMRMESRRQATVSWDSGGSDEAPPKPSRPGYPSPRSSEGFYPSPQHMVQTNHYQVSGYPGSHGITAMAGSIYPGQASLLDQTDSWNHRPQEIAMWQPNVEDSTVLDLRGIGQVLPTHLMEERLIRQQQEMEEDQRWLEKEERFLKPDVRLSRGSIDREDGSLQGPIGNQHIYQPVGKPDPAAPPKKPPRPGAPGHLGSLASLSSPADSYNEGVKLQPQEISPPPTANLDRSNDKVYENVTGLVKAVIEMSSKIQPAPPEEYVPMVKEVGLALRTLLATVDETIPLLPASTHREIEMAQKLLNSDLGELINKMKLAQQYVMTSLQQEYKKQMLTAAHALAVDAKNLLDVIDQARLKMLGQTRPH

[36] = molecular target: Serine/threonine-protein kinase 24 (Homo sapiens) (UniProt Q9Y6E0); settings: Compound concentration 1.0 uM
[37] = molecular target: Ephrin type-A receptor 2 (Homo sapiens) (UniProt P29317)
Sequence of Ephrin type-A receptor 2 (Homo sapiens) (P29317 whole entry): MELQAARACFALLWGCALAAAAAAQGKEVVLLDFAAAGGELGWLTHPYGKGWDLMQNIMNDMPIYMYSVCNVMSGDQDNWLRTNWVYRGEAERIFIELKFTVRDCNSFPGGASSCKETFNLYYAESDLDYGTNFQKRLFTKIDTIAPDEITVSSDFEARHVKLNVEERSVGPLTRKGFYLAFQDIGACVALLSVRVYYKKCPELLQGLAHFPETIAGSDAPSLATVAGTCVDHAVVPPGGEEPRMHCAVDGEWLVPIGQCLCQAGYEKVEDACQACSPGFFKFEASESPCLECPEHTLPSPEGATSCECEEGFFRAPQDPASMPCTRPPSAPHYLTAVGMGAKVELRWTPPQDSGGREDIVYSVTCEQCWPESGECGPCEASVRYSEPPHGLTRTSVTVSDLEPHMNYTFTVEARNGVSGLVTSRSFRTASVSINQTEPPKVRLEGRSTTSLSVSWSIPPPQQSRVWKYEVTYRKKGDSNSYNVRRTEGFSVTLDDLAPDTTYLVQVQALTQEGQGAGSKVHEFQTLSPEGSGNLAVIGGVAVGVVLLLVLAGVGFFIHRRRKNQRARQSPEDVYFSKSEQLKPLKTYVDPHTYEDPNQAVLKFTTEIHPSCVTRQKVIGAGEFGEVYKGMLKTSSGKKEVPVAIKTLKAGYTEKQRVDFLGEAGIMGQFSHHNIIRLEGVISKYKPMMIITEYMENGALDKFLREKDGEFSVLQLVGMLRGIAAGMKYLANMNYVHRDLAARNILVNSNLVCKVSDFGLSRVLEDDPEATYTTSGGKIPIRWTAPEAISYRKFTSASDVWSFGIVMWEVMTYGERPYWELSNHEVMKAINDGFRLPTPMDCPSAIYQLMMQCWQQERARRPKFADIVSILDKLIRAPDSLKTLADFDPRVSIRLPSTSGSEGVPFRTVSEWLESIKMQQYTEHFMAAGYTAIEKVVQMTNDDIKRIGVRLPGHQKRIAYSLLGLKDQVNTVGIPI

`CCC(F)(F)c1cc(N2CCC(S(C)(=O)=O)CC2)nc2sc(C(N)=O)c(N)c12` [BI-605906] showed a residual activity [1] of 108%, a residual activity [2] of 102% and a residual activity ([3]; Compound concentration 1.0 uM) of 96%. It also gave a residual activity ([3]; Compound concentration 10.0 uM) of 105%, a residual activity ([4]; Compound concentration 1.0 uM) of 99% and a residual activity ([4]; Compound concentration 10.0 uM) of 97%. For the same compound, the residual activity [5] was 105%, the residual activity ([6]; Compound concentration 1.0 uM) was 68% and the residual activity ([6]; Compound concentration 10.0 uM) was 67%. It also gave a residual activity [7] of 98%, a residual activity [8] of 78.2% and a residual activity [9] of 82%. For the same compound, the residual activity [10] was 84%, the residual activity [11] was 105% and the residual activity [12] was 96%. It also gave a residual activity ([13]; Compound concentration 1.0 uM) of 92%, a residual activity ([13]; Compound concentration 10.0 uM) of 107% and an inhibition [14] of 13.7%. It also gave a residual activity [15] of 70%, a residual activity [16] of 103% and a residual activity [17] of 86.8%. It also gave a residual activity [18] of 77%, a residual activity [19] of 82% and a residual activity [20] of 95%. For the same compound, the residual activity [21] was 87%, the residual activity [22] was 86% and the residual activity [23] was 95%. It also gave a residual activity (Renin (Homo sapiens)) of 100%, an inhibition [24] of -0.02% and a residual activity [25] of 40.1%. The residual activity [26] was 103%, the residual activity ([27]; Compound concentration 1.0 uM) was 92% and the residual activity ([27]; Compound concentration 10.0 uM) was 95%. For the same compound, the residual activity [28] was 95%, the inhibition [29] was 8.09% and the residual activity [30] was 101%. The inhibition [31] was 6.1%, the residual activity [32] was 100% and the residual activity [33] was 88%. The residual activity [34] was 94%, the residual activity [35] was 87% and the residual activity [36] was 101%. The residual activity ([37]; Compound concentration 1.0 uM) was 93% and the residual activity ([37]; Compound concentration 10.0 uM) was 63%.
